# Measurements published in PubChem BioAssay AID200 (DTP/NCI, 2004).
# Values joined by “and” are separate entries in the source; they are usually repeats but may differ in a detail not shown here. Identical values can stand only once. Inconclusive results and toxic doses are left out.
# Test system: B6C3F1 mice, B16 melanoma ip, median survival T/C
# Assay: NCI In Vivo Anticancer Drug Screen. Data for tumor model B16 Melanoma (intraperitoneal) in B6C3F1 mice
# Settings: endpoint: median survival time, higher = longer survival
# In short: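 Readout: survival or tumor size in treated mice relative to vehicle controls (T/C). Model uses transplantable tumors grown in mice.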
# [1] = dose: 50.0 mg/kg/injection, schedule: Q01DX009 (ip), vehicle: water
# [2] = dose: 12.5 mg/kg/injection, schedule: Q01DX009 (ip), vehicle: saline with Tween-80
# [3] = dose: 25.0 mg/kg/injection, schedule: Q01DX009 (ip), vehicle: saline with Tween-80
# [4] = dose: 50.0 mg/kg/injection, schedule: Q01DX009 (ip), vehicle: saline with Tween-80
compound,measurement,setting,value
Cc1noc(N)c1N,T/C,"dose: 12.0 mg/kg/injection, schedule: Q01DX009 (ip), vehicle: water",94 % of control
same,T/C,"dose: 25.0 mg/kg/injection, schedule: Q01DX009 (ip), vehicle: water",100 % of control
same,T/C,[1],106 % of control
same,T/C,"dose: 100.0 mg/kg/injection, schedule: Q01DX009 (ip), vehicle: water",100 % of control
same,T/C,"dose: 200.0 mg/kg/injection, schedule: Q01DX009 (ip), vehicle: water",96 % of control
same,T/C,"dose: 400.0 mg/kg/injection, schedule: Q01DX009 (ip), vehicle: water",90 % of control
Clc1ccccc1N1CCN(CCCN2CCN(c3ccccc3Cl)CC2)CC1,T/C,"dose: 3.13 mg/kg/injection, schedule: Q01DX009 (ip), vehicle: saline with Tween-80",100 % of control
same,T/C,"dose: 6.25 mg/kg/injection, schedule: Q01DX009 (ip), vehicle: saline with Tween-80",95 % of control
same,T/C,[2],94 % of control
same,T/C,[3],99 % of control
CC(=O)Oc1ccc2c3c1O[C@H]1[C@@H](OC(C)=O)C=C[C@H]4[C@@H](C2)N(C)CC[C@@]341,T/C,"dose: 0.5 mg/kg/injection, schedule: Q01DX009 (ip), vehicle: saline",101 % of control
same,T/C,"dose: 1.0 mg/kg/injection, schedule: Q01DX009 (ip), vehicle: saline",93 % of control
same,T/C,"dose: 2.0 mg/kg/injection, schedule: Q01DX009 (ip), vehicle: saline",90 % of control
same,T/C,"dose: 4.0 mg/kg/injection, schedule: Q01DX009 (ip), vehicle: saline",100 % of control
same,T/C,"dose: 8.0 mg/kg/injection, schedule: Q01DX009 (ip), vehicle: saline",98 % of control
same,T/C,"dose: 16.0 mg/kg/injection, schedule: Q01DX009 (ip), vehicle: saline",86 % of control
same,T/C,"dose: 32.0 mg/kg/injection, schedule: Q01DX009 (ip), vehicle: saline",93 % of control
same,T/C,"dose: 64.0 mg/kg/injection, schedule: Q01DX009 (ip), vehicle: saline",102 % of control
same,T/C,"dose: 128.0 mg/kg/injection, schedule: Q01DX009 (ip), vehicle: saline",110 % of control
CCCCNc1nc(N)nc(Nc2ccc(Br)cc2)c1N=O,T/C,"dose: 50.0 mg/kg/injection, schedule: Q01DX009 (ip), vehicle: Klucel (hydroxypropylcellulose) (HPC)",97 % of control
same,T/C,"dose: 100.0 mg/kg/injection, schedule: Q01DX009 (ip), vehicle: Klucel (hydroxypropylcellulose) (HPC)",92 % of control
CCOC(=O)NC1CCc2cc(OC)c(OC)c(OC)c2-c2ccc(OC)c(=O)cc21 (configuration not stated),T/C,"dose: 1.5 mg/kg/injection, schedule: Q01DX009 (ip), vehicle: Klucel (hydroxypropylcellulose) (HPC)",152 % of control
same,T/C,"dose: 2.5 mg/kg/injection, schedule: Q01DX009 (ip), vehicle: Klucel (hydroxypropylcellulose) (HPC)",150 % of control and 152 % of control
same,T/C,"dose: 4.16 mg/kg/injection, schedule: Q01DX009 (ip), vehicle: Klucel (hydroxypropylcellulose) (HPC)",154 % of control
ClCc1ccc2ccccc2n1,T/C,[3],107 % of control
same,T/C,[4],102 % of control
O=C(O)Cc1cccc2c(=O)cc(-c3ccccc3)oc12,T/C,"dose: 12.5 mg/kg/injection, schedule: Q01DX009 (ip), vehicle: suspension in saline",109 % of control and 103 % of control
same,T/C,"dose: 25.0 mg/kg/injection, schedule: Q01DX009 (ip), vehicle: suspension in saline",115 % of control and 123 % of control
same,T/C,"dose: 50.0 mg/kg/injection, schedule: Q01DX009 (ip), vehicle: suspension in saline",172 % of control
same,T/C,"dose: 100.0 mg/kg/injection, schedule: Q01DX009 (ip), vehicle: suspension in saline",152 % of control and 163 % of control
NC(CNC(=O)CBr)C(=O)O (configuration not stated),T/C,"dose: 6.25 mg/kg/injection, schedule: Q01DX009 (ip), vehicle: water",112 % of control and 117 % of control and 104 % of control
same,T/C,"dose: 12.5 mg/kg/injection, schedule: Q01DX009 (ip), vehicle: water",116 % of control and 118 % of control
same,T/C,[1],153 % of control
CN=C(NC)c1ccc(NC(=O)/C=C\c2ccc(/C=C/C(=O)Nc3ccc(C(=NC)NC)cc3)cc2)cc1,T/C,"dose: 1.56 mg/kg/injection, schedule: Q01DX009 (ip), vehicle: Klucel (hydroxypropylcellulose) (HPC)",110 % of control
same,T/C,"dose: 3.12 mg/kg/injection, schedule: Q01DX009 (ip), vehicle: Klucel (hydroxypropylcellulose) (HPC)",107 % of control
same,T/C,"dose: 6.25 mg/kg/injection, schedule: Q01DX009 (ip), vehicle: Klucel (hydroxypropylcellulose) (HPC)",90 % of control
Brc1c(NC2=NCCN2)ccc2nccnc12,T/C,"dose: 1.56 mg/kg/injection, schedule: Q01DX009 (ip), vehicle: saline",100 % of control
same,T/C,"dose: 3.12 mg/kg/injection, schedule: Q01DX009 (ip), vehicle: saline",96 % of control
same,T/C,"dose: 6.25 mg/kg/injection, schedule: Q01DX009 (ip), vehicle: saline",102 % of control
same,T/C,"dose: 12.5 mg/kg/injection, schedule: Q01DX009 (ip), vehicle: saline",94 % of control and 106 % of control
same,T/C,"dose: 25.0 mg/kg/injection, schedule: Q01DX009 (ip), vehicle: saline",109 % of control and 102 % of control
same,T/C,"dose: 50.0 mg/kg/injection, schedule: Q01DX009 (ip), vehicle: saline",112 % of control and 104 % of control
CC(=O)C[n+]1ccc(C)cc1Sc1ccccc1C,T/C,[2],97 % of control
same,T/C,[3],97 % of control
same,T/C,[4],96 % of control
same,T/C,"dose: 100.0 mg/kg/injection, schedule: Q01DX009 (ip), vehicle: saline with Tween-80",100 % of control
same,T/C,"dose: 200.0 mg/kg/injection, schedule: Q01DX009 (ip), vehicle: saline with Tween-80",101 % of control
CCCCS(=N)(=O)CC[C@H](N)C(=O)O (some centres not stated),T/C,"dose: 445.0 mg/kg/injection, schedule: Q04HX012 (ip), vehicle: water",104 % of control
same,T/C,"dose: 890.0 mg/kg/injection, schedule: Q04HX012 (ip), vehicle: water",107 % of control
COc1cc2cc(c1Cl)N1CCC(C)(O)C(=O)NC(C)C(=O)OC(CC1=O)C1(C)OC1C(C)C1CC(O)(NC(=O)O1)C(OC)/C=C\C=C(\C)C2OC (configuration not stated),T/C,"dose: 8.0 micrograms/kg/injection, schedule: Q01DX009 (ip), vehicle: distilled water + alcohol",160 % of control
same,T/C,"dose: 16.0 micrograms/kg/injection, schedule: Q01DX009 (ip), vehicle: distilled water + alcohol",162 % of control
same,T/C,"dose: 32.0 micrograms/kg/injection, schedule: Q01DX009 (ip), vehicle: distilled water + alcohol",178 % of control
